Data reported in ChEMBL document CHEMBL3352741, “Discovery of VU0431316: a negative allosteric modulator of mGlu5 with activity in a mouse model of anxiety” (Bioorg Med Chem Lett, 2014).

How the values were obtained:
[1] = biological target: Metabotropic glutamate receptor 5 (Rattus norvegicus, UniProt P31424); assay: Negative allosteric modulator activity at rat mGlu5 expressed in HEK293A cells assessed as reduction in glutamate-induced calcium mobilization; type: functional, cell-based, HEK293-A
[2] = biological target: Metabotropic glutamate receptor 5 (Rattus norvegicus) (UniProt P31424); assay: Negative allosteric modulator activity at rat mGlu5 expressed in HEK293A cells assessed as reduction in 100 uM glutamate-induced calcium mobilization at 30 uM; type: functional, cell-based; conditions: HEK293-A
Chain of Metabotropic glutamate receptor 5 (Rattus norvegicus) (P31424 21-1203 limits assumed): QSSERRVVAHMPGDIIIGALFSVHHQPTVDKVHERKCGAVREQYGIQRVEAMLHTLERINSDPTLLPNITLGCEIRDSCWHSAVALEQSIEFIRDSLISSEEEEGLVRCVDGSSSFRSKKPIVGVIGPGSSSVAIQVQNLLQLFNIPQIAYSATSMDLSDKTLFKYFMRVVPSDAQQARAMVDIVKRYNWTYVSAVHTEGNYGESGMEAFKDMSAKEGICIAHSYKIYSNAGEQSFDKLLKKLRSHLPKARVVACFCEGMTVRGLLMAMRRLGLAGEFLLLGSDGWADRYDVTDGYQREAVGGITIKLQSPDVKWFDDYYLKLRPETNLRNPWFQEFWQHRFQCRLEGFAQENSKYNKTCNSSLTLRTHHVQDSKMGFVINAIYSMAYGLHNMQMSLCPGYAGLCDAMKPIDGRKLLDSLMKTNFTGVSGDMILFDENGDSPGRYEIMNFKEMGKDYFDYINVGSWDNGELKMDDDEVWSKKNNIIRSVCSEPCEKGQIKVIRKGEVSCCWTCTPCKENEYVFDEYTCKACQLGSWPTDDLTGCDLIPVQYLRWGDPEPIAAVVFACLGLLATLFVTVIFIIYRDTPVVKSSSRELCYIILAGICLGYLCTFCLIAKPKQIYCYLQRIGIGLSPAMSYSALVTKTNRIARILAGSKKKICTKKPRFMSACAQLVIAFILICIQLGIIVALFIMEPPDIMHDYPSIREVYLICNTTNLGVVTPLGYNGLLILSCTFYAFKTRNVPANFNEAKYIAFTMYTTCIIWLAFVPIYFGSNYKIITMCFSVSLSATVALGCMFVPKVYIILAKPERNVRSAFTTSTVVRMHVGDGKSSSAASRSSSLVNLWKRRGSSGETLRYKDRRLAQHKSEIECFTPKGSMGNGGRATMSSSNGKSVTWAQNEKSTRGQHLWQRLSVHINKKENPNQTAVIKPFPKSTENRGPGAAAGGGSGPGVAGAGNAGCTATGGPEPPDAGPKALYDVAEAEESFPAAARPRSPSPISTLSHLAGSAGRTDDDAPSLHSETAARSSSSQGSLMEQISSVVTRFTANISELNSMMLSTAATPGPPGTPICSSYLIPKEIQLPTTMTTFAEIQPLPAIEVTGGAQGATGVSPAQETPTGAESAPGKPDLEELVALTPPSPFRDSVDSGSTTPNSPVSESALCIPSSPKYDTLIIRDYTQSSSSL

Chain of Metabotropic glutamate receptor 5 (P31424 whole entry): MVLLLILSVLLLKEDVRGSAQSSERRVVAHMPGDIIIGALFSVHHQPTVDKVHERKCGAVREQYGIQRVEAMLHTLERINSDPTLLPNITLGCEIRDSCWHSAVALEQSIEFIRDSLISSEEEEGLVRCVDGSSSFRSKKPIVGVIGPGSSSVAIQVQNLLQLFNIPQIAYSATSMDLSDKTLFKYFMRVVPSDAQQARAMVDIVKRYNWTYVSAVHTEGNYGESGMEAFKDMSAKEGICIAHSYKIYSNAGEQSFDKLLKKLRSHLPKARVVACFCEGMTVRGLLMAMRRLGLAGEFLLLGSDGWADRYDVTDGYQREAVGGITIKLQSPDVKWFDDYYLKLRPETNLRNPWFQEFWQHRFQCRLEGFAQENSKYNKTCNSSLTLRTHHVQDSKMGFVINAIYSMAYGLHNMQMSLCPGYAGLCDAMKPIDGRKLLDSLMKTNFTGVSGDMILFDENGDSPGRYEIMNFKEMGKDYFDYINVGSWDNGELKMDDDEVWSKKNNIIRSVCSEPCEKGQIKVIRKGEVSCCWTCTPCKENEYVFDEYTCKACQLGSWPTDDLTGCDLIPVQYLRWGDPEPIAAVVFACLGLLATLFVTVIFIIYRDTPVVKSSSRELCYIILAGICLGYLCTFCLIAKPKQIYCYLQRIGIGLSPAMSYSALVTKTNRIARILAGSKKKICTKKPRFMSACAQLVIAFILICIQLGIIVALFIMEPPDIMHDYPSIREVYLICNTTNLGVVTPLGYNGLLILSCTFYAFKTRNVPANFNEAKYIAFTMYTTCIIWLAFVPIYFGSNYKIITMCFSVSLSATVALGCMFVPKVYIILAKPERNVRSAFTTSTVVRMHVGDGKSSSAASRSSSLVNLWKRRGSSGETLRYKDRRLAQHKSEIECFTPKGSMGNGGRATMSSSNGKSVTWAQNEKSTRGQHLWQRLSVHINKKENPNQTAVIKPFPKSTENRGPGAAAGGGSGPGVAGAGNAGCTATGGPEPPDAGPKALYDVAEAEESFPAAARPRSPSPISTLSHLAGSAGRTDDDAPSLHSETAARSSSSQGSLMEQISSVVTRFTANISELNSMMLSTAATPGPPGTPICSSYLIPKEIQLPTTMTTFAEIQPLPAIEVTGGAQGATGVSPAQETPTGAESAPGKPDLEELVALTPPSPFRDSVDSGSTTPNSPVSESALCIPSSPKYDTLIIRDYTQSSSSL

| SMILES | IC50 [1] | %max [2] |
| --- | --- | --- |
| COc1cc(OC)cc(C(=O)Nc2cncc(Oc3cncc(F)c3)n2)c1 | > 30 µM |  |
| O=C(Nc1cncc(Oc2cncc(F)c2)n1)c1cccnn1 | > 30 µM |  |
| Cc1ccnc(C(=O)Nc2cncc(Oc3cncc(F)c3)n2)c1 | 0.311 µM | 1.7% |
| O=C(Nc1cncc(Oc2cncnc2)n1)c1cccc(F)c1 | 5.14 µM | 1.5% |
| Cc1cc(C)cc(C(=O)Nc2cncc(Oc3cncc(F)c3)n2)c1 |  | 6.6% |
| COc1cccc(C(=O)Nc2cncc(Oc3cncnc3)n2)c1 |  | -4.3% |
| O=C(Nc1cncc(Oc2cncc(F)c2)n1)c1cscn1 | 8.43 µM | 22% |
| O=C(Nc1cncc(Oc2cncc(F)c2)n1)c1cccc(Cl)c1 | 0.118 µM | 2% |
| COc1cccc(C(=O)Nc2cncc(Oc3cncc(F)c3)n2)c1 |  | -5.6% |
| Cc1ccc(C(=O)Nc2cncc(Oc3cncnc3)n2)s1 | > 30 µM |  |
| O=C(Nc1cncc(Oc2cncc(F)c2)n1)c1cccc(Cl)n1 | > 30 µM |  |
| O=C(Nc1cncc(Oc2cncc(F)c2)n1)c1cccc(Cl)c1F | > 30 µM |  |
| O=C(Nc1cncc(Oc2cncnc2)n1)c1cccs1 | > 10 µM | 20% |
| O=C(Nc1cncc(Oc2cncc(F)c2)n1)c1ccc(F)c(Cl)c1 | 4.59 µM | -2.8% |
| Cc1csc(C(=O)Nc2cncc(Oc3cncc(F)c3)n2)n1 | > 10 µM | 20% |
| O=C(Nc1cncc(Oc2cncnc2)n1)c1cscn1 | > 10 µM | 35% |
| O=C(Nc1cncc(Oc2cccnc2)n1)c1cccc(Cl)c1 | 0.129 µM |  |
| O=C(Nc1cncc(Oc2cncc(F)c2)n1)c1cncs1 | > 30 µM |  |
| CN(C)c1cccc(C(=O)Nc2cncc(Oc3cncc(F)c3)n2)c1 | > 10 µM | 52% |
| O=C(Nc1cncc(Oc2cncc(F)c2)n1)c1ccccc1 |  | -9.4% |
| N#Cc1cccc(C(=O)Nc2cncc(Oc3cncc(F)c3)n2)c1 | 0.662 µM | 1.2% |
| Cc1ccnc(C(=O)Nc2cncc(Oc3cncnc3)n2)c1 | 0.193 µM | 2.1% |
